Tests used:
[1] = tested on: SF268 (glioma) cancer cell line; experiment: MTT assay, inhibition of cell proliferation, SF268; assay type: cell-based; details: SF268, 72 hours
Description: (§1) The compounds of the invention were tested for their inhibition potential of cell proliferation. MCF7 (breast) and SF268 (glioma) cancer cell lines were incubated with different concentrations of the compounds and their viability was assessed using an MTT (3-(4,5-dimethylthiazol-2-yl)-2,5-diphenyltetrazolium bromide) assay. The MTT assay is well known in the art (see for example Slater et al., Biochim. Biophys. Acta 77 (1963) 383). The cells were incubated with a given inhibitor for 72 hours and assayed.

[2] = molecular target: T1, Pyruvate kinase isolated from rabbit muscle (Oryctolagus cuniculus, UniProt P11974); experiment: Inhibition of pyruvate kinase (indirect assay quantifying ADP production); assay type: biochemical
T1 construct: Pyruvate kinase isolated from rabbit muscle; purchased Sigma-Aldrich; host or cells: rabbit muscle (tissue-derived enzyme)
Description: The compounds E-3-chlorophosphoenolpyruvate ditriethyl-ammonium salt (ECPDAT), Z-3-chlorophosphoenolpyruvate tritriethyl-ammonium salt (CPTP), phosphoenol-3-bromo-pyruvic acid mono-cyclohexyl ammonium salt (PBPA), 2-bromooxoethylphosphonic acid mono-cyclohexyl-ammonium salt (BOEPA) and 3-bromopyruvic acid (BrPyA) were tested for their efficiency at inhibiting pyruvate kinase. Pyruvate kinase isolated from rabbit muscle was purchased from Sigma-Aldrich. Pyruvate kinase was assayed indirectly by quantifying ADP production formed in the reaction ATP+pyruvate to ADP+phosphoenolpyruvate. Inhibitors were added to the reaction mixture immediately before the reaction was started by the addition of ATP.

[3] = tested on: MCF7 (breast) cancer cell line; experiment: MTT assay, inhibition of cell proliferation, MCF7; assay type: cell-based; details: MCF7, 72 hours
Description: as §1

T1 sequence (P11974 whole entry): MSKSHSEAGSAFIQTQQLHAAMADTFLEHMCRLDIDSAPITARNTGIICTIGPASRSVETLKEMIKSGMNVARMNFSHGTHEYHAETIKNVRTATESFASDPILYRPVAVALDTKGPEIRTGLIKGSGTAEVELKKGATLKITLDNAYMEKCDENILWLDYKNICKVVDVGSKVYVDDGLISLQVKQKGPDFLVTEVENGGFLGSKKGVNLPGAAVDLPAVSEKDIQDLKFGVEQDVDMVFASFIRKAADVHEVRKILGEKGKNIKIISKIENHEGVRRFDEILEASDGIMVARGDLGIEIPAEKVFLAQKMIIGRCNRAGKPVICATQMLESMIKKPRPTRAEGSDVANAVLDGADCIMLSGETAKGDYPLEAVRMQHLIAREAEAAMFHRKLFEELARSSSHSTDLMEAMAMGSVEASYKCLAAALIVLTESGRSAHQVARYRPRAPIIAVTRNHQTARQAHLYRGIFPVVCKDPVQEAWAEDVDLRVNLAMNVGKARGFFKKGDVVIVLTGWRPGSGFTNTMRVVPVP

E-3-chlorophosphoenolpyruvate ditriethyl-ammonium salt [E-CPDA]
Inhibition of cell proliferation [1]: inhibited cell proliferation | % (A-Blank relative to control) ([1]; 10 uM): 80.1% | A-Blank (Average-Blank) O.D. at 570 nm ([1]; 10 uM): 0.672 O.D. | Average O.D. reading at 570 nm ([1]; 10 uM): 0.777 O.D. | % (A-Blank relative to control) ([1]; 25 uM): 80.453% | A-Blank (Average-Blank) O.D. at 570 nm ([1]; 25 uM): 0.675 O.D. | Average O.D. reading at 570 nm ([1]; 25 uM): 0.78 O.D. | % (A-Blank relative to control) ([1]; 50 uM): 64.243% | A-Blank (Average-Blank) O.D. at 570 nm ([1]; 50 uM): 0.539 O.D. | Average O.D. reading at 570 nm ([1]; 50 uM): 0.644 O.D. | % (A-Blank relative to control) ([1]; 75 uM): 44.458% | A-Blank (Average-Blank) O.D. at 570 nm ([1]; 75 uM): 0.373 O.D. | Average O.D. reading at 570 nm ([1]; 75 uM): 0.478 O.D. | % (A-Blank relative to control) ([1]; 100 uM): 30.513% | A-Blank (Average-Blank) O.D. at 570 nm ([1]; 100 uM): 0.256 O.D. | Average O.D. reading at 570 nm ([1]; 100 uM): 0.361 O.D. | % (A-Blank relative to control) ([1]; 200 uM): 13.23% | A-Blank (Average-Blank) O.D. at 570 nm ([1]; 200 uM): 0.111 O.D. | Average O.D. reading at 570 nm ([1]; 200 uM): 0.216 O.D. | % (A-Blank relative to control) ([1]; 300 uM): 6.555% | A-Blank (Average-Blank) O.D. at 570 nm ([1]; 300 uM): 0.055 O.D. | Average O.D. reading at 570 nm ([1]; 300 uM): 0.16 O.D. | % (A-Blank relative to control) ([1]; 500 uM): 3.099% | A-Blank (Average-Blank) O.D. at 570 nm ([1]; 500 uM): 0.026 O.D. | Average O.D. reading at 570 nm ([1]; 500 uM): 0.131 O.D. | Inhibition of pyruvate kinase compared with BrPyA [2]: inhibited pyruvate kinase at lower concentrations than BrPyA | % Inhibition ([2]; Concentration 0.1 μM): 0% | % Inhibition ([2]; Concentration 1 μM): 10.9% | % Inhibition ([2]; Concentration 10 μM): 100% | Inhibition of cell proliferation [3]: inhibited cell proliferation | % (A-Blank relative to control) ([3]; 10 uM): 101.1% | A-Blank (Average-Blank) O.D. at 570 nm ([3]; 10 uM): 0.8245 O.D. | Average O.D. reading at 570 nm ([3]; 10 uM): 0.91 O.D. | % (A-Blank relative to control) ([3]; 25 uM): 97.333% | A-Blank (Average-Blank) O.D. at 570 nm ([3]; 25 uM): 0.7938 O.D. | Average O.D. reading at 570 nm ([3]; 25 uM): 0.8793 O.D. | % (A-Blank relative to control) ([3]; 50 uM): 86.726% | A-Blank (Average-Blank) O.D. at 570 nm ([3]; 50 uM): 0.7073 O.D. | Average O.D. reading at 570 nm ([3]; 50 uM): 0.7928 O.D. | % (A-Blank relative to control) ([3]; 75 uM): 78.449% | A-Blank (Average-Blank) O.D. at 570 nm ([3]; 75 uM): 0.6398 O.D. | Average O.D. reading at 570 nm ([3]; 75 uM): 0.7253 O.D. | % (A-Blank relative to control) ([3]; 100 uM): 72.072% | A-Blank (Average-Blank) O.D. at 570 nm ([3]; 100 uM): 0.5878 O.D. | Average O.D. reading at 570 nm ([3]; 100 uM): 0.6733 O.D. | % (A-Blank relative to control) ([3]; 200 uM): 68.486% | A-Blank (Average-Blank) O.D. at 570 nm ([3]; 200 uM): 0.5585 O.D. | Average O.D. reading at 570 nm ([3]; 200 uM): 0.644 O.D. | % (A-Blank relative to control) ([3]; 300 uM): 7.8786% | A-Blank (Average-Blank) O.D. at 570 nm ([3]; 300 uM): 0.06425 O.D. | Average O.D. reading at 570 nm ([3]; 300 uM): 0.1497 O.D. | % (A-Blank relative to control) ([3]; 500 uM): 2.759% | A-Blank (Average-Blank) O.D. at 570 nm ([3]; 500 uM): 0.0225 O.D. | Average O.D. reading at 570 nm ([3]; 500 uM): 0.108 O.D.

Z-3-chlorophosphoenolpyruvate tritriethyl-ammonium salt [CPTP]
Inhibition of cell proliferation [1]: inhibited cell proliferation | % (A-Blank relative to control) ([1]; 10 uM): 99.42% | A-Blank (Average-Blank) O.D. at 570 nm ([1]; 10 uM): 0.6887 O.D. | Average O.D. reading at 570 nm ([1]; 10 uM): 0.775 O.D. | % (A-Blank relative to control) ([1]; 25 uM): 99.892% | A-Blank (Average-Blank) O.D. at 570 nm ([1]; 25 uM): 0.692 O.D. | Average O.D. reading at 570 nm ([1]; 25 uM): 0.7783 O.D. | % (A-Blank relative to control) ([1]; 50 uM): 98.232% | A-Blank (Average-Blank) O.D. at 570 nm ([1]; 50 uM): 0.6805 O.D. | Average O.D. reading at 570 nm ([1]; 50 uM): 0.7668 O.D. | % (A-Blank relative to control) ([1]; 75 uM): 93.829% | A-Blank (Average-Blank) O.D. at 570 nm ([1]; 75 uM): 0.65 O.D. | Average O.D. reading at 570 nm ([1]; 75 uM): 0.7363 O.D. | % (A-Blank relative to control) ([1]; 100 uM): 96.752% | A-Blank (Average-Blank) O.D. at 570 nm ([1]; 100 uM): 0.6703 O.D. | Average O.D. reading at 570 nm ([1]; 100 uM): 0.7565 O.D. | % (A-Blank relative to control) ([1]; 200 uM): 75.893% | A-Blank (Average-Blank) O.D. at 570 nm ([1]; 200 uM): 0.5258 O.D. | Average O.D. reading at 570 nm ([1]; 200 uM): 0.612 O.D. | % (A-Blank relative to control) ([1]; 300 uM): 57.4883% | A-Blank (Average-Blank) O.D. at 570 nm ([1]; 300 uM): 0.3982 O.D. | Average O.D. reading at 570 nm ([1]; 300 uM): 0.4845 O.D. | % (A-Blank relative to control) ([1]; 500 uM): 36.8459% | A-Blank (Average-Blank) O.D. at 570 nm ([1]; 500 uM): 0.2552 O.D. | Average O.D. reading at 570 nm ([1]; 500 uM): 0.3415 O.D. | Inhibition of pyruvate kinase compared with BrPyA [2]: inhibited pyruvate kinase at lower concentrations than BrPyA | % Inhibition ([2]; Concentration 0.1 μM): 0% | % Inhibition ([2]; Concentration 1 μM): 43.7% | % Inhibition ([2]; Concentration 10 μM): 48.4% | Inhibition of cell proliferation [3]: inhibited cell proliferation | % (A-Blank relative to control) ([3]; 10 uM): 98.7% | A-Blank (Average-Blank) O.D. at 570 nm ([3]; 10 uM): 0.7995 O.D. | Average O.D. reading at 570 nm ([3]; 10 uM): 0.8822 O.D. | % (A-Blank relative to control) ([3]; 25 uM): 98.796% | A-Blank (Average-Blank) O.D. at 570 nm ([3]; 25 uM): 0.8003 O.D. | Average O.D. reading at 570 nm ([3]; 25 uM): 0.883 O.D. | % (A-Blank relative to control) ([3]; 50 uM): 101.05% | A-Blank (Average-Blank) O.D. at 570 nm ([3]; 50 uM): 0.8185 O.D. | Average O.D. reading at 570 nm ([3]; 50 uM): 0.9013 O.D. | % (A-Blank relative to control) ([3]; 75 uM): 96.173% | A-Blank (Average-Blank) O.D. at 570 nm ([3]; 75 uM): 0.779 O.D. | Average O.D. reading at 570 nm ([3]; 75 uM): 0.8618 O.D. | % (A-Blank relative to control) ([3]; 100 uM): 96.358% | A-Blank (Average-Blank) O.D. at 570 nm ([3]; 100 uM): 0.7805 O.D. | Average O.D. reading at 570 nm ([3]; 100 uM): 0.8633 O.D. | % (A-Blank relative to control) ([3]; 200 uM): 88.241% | A-Blank (Average-Blank) O.D. at 570 nm ([3]; 200 uM): 0.7148 O.D. | Average O.D. reading at 570 nm ([3]; 200 uM): 0.7975 O.D. | % (A-Blank relative to control) ([3]; 300 uM): 81.4198% | A-Blank (Average-Blank) O.D. at 570 nm ([3]; 300 uM): 0.6595 O.D. | Average O.D. reading at 570 nm ([3]; 300 uM): 0.7422 O.D. | % (A-Blank relative to control) ([3]; 500 uM): 71.39% | A-Blank (Average-Blank) O.D. at 570 nm ([3]; 500 uM): 0.5783 O.D. | Average O.D. reading at 570 nm ([3]; 500 uM): 0.661 O.D.

Reference: patent US8026278B2, “Inhibitors of pyruvate kinase as therapeutic agents for cancer” (priority 2005, dated 2011)
